Assay results: patent US20160100579A1, “NEMATICIDAL N-(2-SUBSTITUTED 2-PHENYLETHYL)CARBOXAMIDES AND N-(2-SUBSTITUTED 2-PHENYLETHYL)-THIOCARBOXAMIDES” (priority 2013, published 2016)
Like-named read-outs stand apart in the source and are kept apart here.

Legend:
[1] = Measurement of log P values by HPLC on reversed phase columns (EEC directive 79/831 Annex V.A8; methods [a] pH 2.3, [b] pH 2.7, [c] pH 7.8); format: physicochemical; conditions: for chromatographic logP: reversed phase HPLC column
Experimental: Measurement of log P-values:
Measurement of log P values was performed according EEC directive 79/831 Annex V.A8 by HPLC (High Performance Liquid Chromatography) on reversed phase columns with the following methods:
^[a] Measurement was done at pH 2.3 with 0.1% phosphoric acid and acetonitrile as eluent with a linear gradient from 10% acetonitrile to 95% acetonitrile.
^[b] measurement of LC-MS was done at pH 2.7 with 0.1% formic acid in water and with acetonitrile (contains 0.1% formic acid) as eluent with a linear gradient from 10% acetonitrile to 95% acetonitrile.
^[c] Measurement with LC-MS was done at pH 7.8 with 0.001 molar ammonium hydrogen carbonate solution in water as eluent with a linear gradient from 10% acetonitrile to 95% acetonitrile.
Calibration was done with not branched alkan2-ones (with 3 to 16 carbon atoms) with known log P-values (measurement of log P values using retention times with linear interpolation between successive alkanones).. lambda-maX-values were determined using UV-spectra from 200 nm to 400 nm and the peak values of the chromatographic signals.

Meloidogyne incognita = Meloidogyne incognita - test (MELGIN); format: in vivo; conditions: 20 ppm; salad seedlings in sand; after 14 days; 100% = no galls found
Experimental: Meloidogyne incognita—test (MELGIN)
Solvent: 125.0 parts by weight of acetone
To produce a suitable preparation of active compound, 1 part by weight of active compound is mixed with the stated amount of solvent, and the concentrate is diluted with water to the desired concentration.
Vessels are filled with sand, a solution of the active ingredient, a suspension containing eggs and larvae of the southern root-knot nematode (Meloidogyne incognita) and salad seeds. The salad seeds germinate and the seedlings grow. Galls develop in the roots.
After 14 days the nematicidal activity is determined on the basis of the percentage of gall formation. 100% means that no galls were found; 0% means the number of galls found on the roots of the treated plants was equal to that in untreated control plants.

Cooperia curticei = format: in vivo; conditions: after 5 days, 100% = all larvae killed
Experimental: Cooperia curticei—Test (COOPCU)
(§1) Solvent: dimethyl sulfoxide
(§2) To produce a suitable preparation of active compound, 10 mg of active compound are dissolved in 0.5 ml solvent, and the concentrate is diluted with “Ringer's solution” to the desired concentration.
Approximately 40 nematode larvae (Cooperia curticei) are transferred into a test tube containing the compound solution.
After 5 days percentage of larval mortality is recorded. 100% efficacy means all larvae are killed; 0% efficacy means no larvae are killed.

Haemonchus contortus = Haemonchus contortus - Test (HAEMCO); format: in vivo; conditions: after 5 days, 100% = all larvae killed
Experimental: Haemonchus contortus—Test (HAEMCO)
as §1, §2
Approximately 40 larvae of the red stomach worm (Haemonchus contortus) are transferred into a test tube containing compound solution.
After 5 days percentage of larval mortality is recorded. 100% efficacy means all larvae are killed, 0% efficacy means no larvae are killed.

[2] = method [b]: LC-MS at pH 2.7, 0.1% formic acid in water / acetonitrile
[3] = method [c]: LC-MS at pH 7.8, 0.001 molar ammonium hydrogen carbonate in water / acetonitrile
[4] = method [b]: LC-MS, pH 2.7, 0.1% formic acid in water / acetonitrile
[5] = method [a]: HPLC, pH 2.3, 0.1% phosphoric acid / acetonitrile
[6] = method [c]: LC-MS, pH 7.8, 0.001 molar ammonium hydrogen carbonate / acetonitrile

SMILES | log P [1, 2] | log P [1, 3] | nematicidal activity (percentage of gall formation) (Meloidogyne incognita) [%] | also measured
COC(c1ccccc1Cl)C(C)NC(=O)c1ccccc1Cl (stereo not drawn) [Compound 156] | 3.74^[b] | 3.26^[c]; | 90 | 
CCOC(c1ccc(Cl)cc1Cl)C(C)NC(=O)c1cccnc1C(F)(F)F (stereo not drawn) [Compound 108] |  |  | 100 | logP [1, 4]: 3.92^[b]
COC(c1ccccc1Cl)C(C)NC(=O)c1cccnc1C(F)(F)F (stereo not drawn) [Compound 209] | 3.27^[b] | 3.24^[c]; |  | activity (efficacy: larval mortality) (Cooperia curticei; 20 ppm): 90%
C=CCOC(CNC(=O)c1sccc1C)c1ccc(Cl)cc1 (stereo not drawn) [Compound 2] |  |  |  | activity (efficacy: larval mortality) (Cooperia curticei; 20 ppm): 100%; activity (efficacy: larval mortality) (Haemonchus contortus; 20 ppm): 90%
Cc1ccsc1C(=O)NCC(OCC1CC1)c1ccc(Cl)cc1 (stereo not drawn) [Compound 6] |  |  |  | logP [1, 5]: 3.87^[a]; activity (efficacy: larval mortality) (Cooperia curticei; 100 ppm): 90%
CCOC(c1ccc(Cl)cc1Cl)C(C)NC(=O)c1ccsc1I (stereo not drawn) [Compound 205] | 4.63^[b] | 4.60^[c]; |  | activity (efficacy: larval mortality) (Cooperia curticei; 20 ppm): 100%; activity (efficacy: larval mortality) (Haemonchus contortus; 20 ppm): 90%
COC(CNC(=O)c1cccnc1C(F)(F)F)c1ccc(Cl)cc1Cl (stereo not drawn) [Compound 104] |  |  | 90 | logP [1, 4]: 3.11^[b]
CCOC(c1ccc(Cl)cc1Cl)C(C)NC(=O)c1ccccc1C(F)(F)F (stereo not drawn) [Compound 194] | 4.50[b] | 4.44^[c]; | 90 | 
COC(c1ccc(Cl)cc1)C(C)NC(=O)c1ccccc1Cl (stereo not drawn) [Compound 130] |  | 3.21^[c] |  | activity (efficacy: larval mortality) (Cooperia curticei; 20 ppm): 80%; activity (efficacy: larval mortality) (Haemonchus contortus; 20 ppm): 80%
COC(c1ccccc1Cl)C(C)NC(=O)c1ccccc1Br (stereo not drawn) [Compound 142] | 3.34^[b] | 3.31^[c]; | 90 | 
COC(c1ccc(Cl)cc1Cl)C1(NC(=O)c2nccnc2C(F)(F)F)CC1 (stereo not drawn) [Compound 99] |  |  |  | logP [1, 4]: 3.61^[b]; activity (efficacy: larval mortality) (Cooperia curticei; 20 ppm): 100%
COC(c1ccc(Cl)cc1Cl)C(C)NC(=O)c1cn(C)nc1C(F)F (stereo not drawn) [Compound 12] |  |  | 100 | activity (efficacy: larval mortality) (Haemonchus contortus; 100 ppm): 90%
COC(c1ccc(F)cc1)C(C)NC(=O)c1ccccc1Cl (stereo not drawn) [Compound 191] | 3.02^[b] | 2.95^[c]; | 90 | 
C=CCOC(CNC(=O)c1cccnc1Cl)c1ccc(Cl)cc1 (stereo not drawn) [Compound 8] |  |  |  | activity (efficacy: larval mortality) (Cooperia curticei; 20 ppm): 80%
CCOC(c1ccc(Cl)cc1Cl)C(C)NC(=O)c1cccnc1C(F)F (stereo not drawn) [Compound 105] |  |  | 90 | logP [1, 4]: 3.57^[b]
CCOC(c1ccc(Cl)cc1Cl)C(C)NC(=O)c1cccnc1Cl (stereo not drawn) [Compound 106] |  |  | 90 | logP [1, 4]: 3.59^[b]
COC(CNC(=O)c1sccc1Cl)c1ccc(Cl)cc1 (stereo not drawn) [Compound 69] |  |  |  | logP [1, 4]: 3.41^[b]; logP [1, 6]: 3.39^[c];; activity (efficacy: larval mortality) (Cooperia curticei; 100 ppm): 90%; activity (efficacy: larval mortality) (Haemonchus contortus; 100 ppm): 90%
COC(c1ccc(Cl)cc1Cl)C1(NC(=O)c2cccnc2C(F)(F)F)CC1 (stereo not drawn) [Compound 100] |  |  | 90 | logP [1, 4]: 3.37^[b]

SMILES | log P [1, 2] | log P [1, 3] | nematicidal activity (percentage of gall formation) (Meloidogyne incognita) [%] | also measured
COC(c1ccccc1Cl)C(C)NC(=O)c1ccsc1I (stereo not drawn) [Compound 203] | 3.53^[b] | 3.53^[c]; |  | activity (efficacy: larval mortality) (Cooperia curticei; 20 ppm): 80%; activity (efficacy: larval mortality) (Haemonchus contortus; 20 ppm): 80%
COC(c1ccc(Cl)cc1Cl)C(C)NC(=O)c1ccnn1C(F)F (stereo not drawn) [Compound 123] | 3.09^[b] |  |  | activity (efficacy: larval mortality) (Haemonchus contortus; 20 ppm): 100%
COC(c1ccccc1Cl)C(C)NC(=O)c1c(F)cccc1C(F)(F)F (stereo not drawn) [Compound 141] | 3.52^[b] | 3.50^[c]; | 90 | 
COC(CNC(=O)c1nccnc1C(F)(F)F)c1cc(Cl)cc(Cl)c1 (stereo not drawn) [Compound 120] | 3.42^[b] |  |  | activity (efficacy: larval mortality) (Haemonchus contortus; 20 ppm): 80%
COC(c1ccc(Cl)cc1)C(C)NC(=O)c1ccsc1Br (stereo not drawn) [Compound 63] |  |  |  | logP [1, 4]: 3.68^[b]; activity (efficacy: larval mortality) (Haemonchus contortus; 100 ppm): 100%
COC(c1ccccc1Cl)C(C)NC(=O)c1c(F)cccc1F (stereo not drawn) [Compound 144] | 3.11^[b] | 3.08^[c]; | 90 | 
COC(CNC(=O)c1cn(C)nc1C(F)F)c1cc(Cl)cc(Cl)c1 (stereo not drawn) [Compound 25] |  |  | 90 | 
COC(c1ccc(Cl)cc1Cl)C(C)NC(=O)c1ccccc1Cl (stereo not drawn) [Compound 30] |  |  | 100 | activity (efficacy: larval mortality) (Haemonchus contortus; 100 ppm): 100%
COC(c1ccc(Cl)cc1Cl)C(C)NC(=O)c1cccnc1C(F)(F)F (stereo not drawn) [Compound 39] |  |  | 90 | activity (efficacy: larval mortality) (Haemonchus contortus; 100 ppm): 100%
COC(c1ccccc1Cl)C(C)NC(=O)c1nccnc1Cl (stereo not drawn) [Compound 213] | 2.76^[b] | 2.73^[c]; | 100 | 
COC(c1ccc(Cl)cc1)C(C)NC(=O)c1sccc1Cl (stereo not drawn) [Compound 66] |  |  |  | logP [1, 4]: 3.83^[b]; logP [1, 6]: 3.83^[c];; activity (efficacy: larval mortality) (Haemonchus contortus; 20 ppm): 90%
COC(c1ccc(Cl)cc1Cl)C(C)NC(=O)c1ccccc1C(F)(F)F (stereo not drawn) [Compound 35] |  |  | 90 | logP [1, 5]: 3.90^[a]; activity (efficacy: larval mortality) (Haemonchus contortus; 100 ppm): 100%
COC(c1ccc(Cl)cc1)C(C)NC(=O)c1ccccc1C(F)F (stereo not drawn) [Compound 136] | 3.46^[b] | 3.42^[c]; |  | activity (efficacy: larval mortality) (Haemonchus contortus; 20 ppm): 80%
COC(c1ccc(Cl)cc1Cl)C1(NC(=O)c2cccnc2Cl)CC1 (stereo not drawn) [Compound 98] |  |  |  | logP [1, 4]: 3.00^[b]; activity (efficacy: larval mortality) (Haemonchus contortus; 20 ppm): 80%
COC(c1ccc(Cl)cc1Cl)C1(NC(=O)c2nccnc2Cl)CC1 (stereo not drawn) [Compound 210, 3-chloro-N-{1-[(2,4-dichlorophenyl)(methoxy)methyl]cyclopropyl}pyrazine-2-carboxamide] |  |  | 100 | chromatographic logP ([1]; acid HPLC method, reversed phase, read-out: Log P acid): 3.24; chromatographic logP ([1]; method [b]: LC-MS at pH 2.7, 0.1% formic acid in water / acetonitrile, read-out: log P): 3.24; chromatographic logP ([1]; method [c]: LC-MS at pH 7.8, 0.001 molar ammonium hydrogen carbonate in water / acetonitrile, read-out: log P): 3.19
COC(c1ccc(Cl)cc1)C(C)NC(=O)c1ccccc1C (stereo not drawn) [Compound 129] | 3.30^[b] | 3.20^[c]; |  | activity (efficacy: larval mortality) (Haemonchus contortus; 20 ppm): 80%
COC(c1ccccc1Cl)C(C)NC(=O)c1cccnc1Cl (stereo not drawn) [Compound 143] | 2.55^[b] | 2.53^[c]; | 90 | 
COC(c1ccccc1Cl)C(C)NC(=O)c1ccccc1C(F)F (stereo not drawn) [Compound 140] | 3.42^[b] | 3.39^[c]; | 90 | 
